Assay results reported in patent US20180055844A1 (Celgene Corporation, priority 2011, published 2018).

Key:
Experiment in all cases: Activity against lenalidomide resistant cell lines
Assay type in all cases: cell-based
1051 = settings: 1051, n = 3
Method: (§1) The ability of compounds to effect the proliferation of MM cell lines was investigated in an in vitro study. Uptake of [^3H]-thymidine by H929 MM cells and 7-AAD uptake in several MM cell lines (H929, U266B1, Anbl-6, KMS-34, OPM-2, DF-15, DF15/R, CAG, MM1.S and LP-1) was measured as an indicator of cell proliferation. Cells were incubated in the presence of compounds for 72 hours ([^3H]-thymidine was included for the last 6 hours of the incubation period) or 5 days followed by 7-AAD uptake to measure and count viable cells.

1052 = settings: 1052, n = 3
Method: as §1

1053 = settings: 1053, n = 3
Method: as §1

1054 = settings: 1054, n = 3
Method: as §1

D1 = settings: D1, n = 3
Method: as §1

H929 = settings: Homo sapiens, NCI-H929; H929, n = 3
Method: as §1

With Nc1cccc2c1CN(C1CCC(=O)NC1=O)C2=O (stereo not drawn) [Lenolidomide, Lenalidomide, reference compound] the IC50 1051 was “No IC50”, the IC50 1052 was “No IC50” and the IC50 1053 was “No IC50”. The IC50 1054 was “No IC50”, the IC50 (D1) was “No IC50” and the IC50 (H929) was 12.6 µM.
